Measured values as given in PubChem BioAssay AID1918936 (Molecular Pharmacology Branch, DTP, NCI, 2023).

Tested on: 349418-098-R-PDC complex spheroid viability
Assay: Anticancer human tumor 349418-098-R-PDC patient-derived lung adenocarcinoma cell line growth inhibition
Details: for IC50: curve of first compound; for viability, T/C: stronger effect = lower value
How it was run: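 Drug combinations with the LSD1 inhibitor iadademstat tested on tumor cells co-cultured as spheroids with endothelial cells and mesenchymal stem cells. Concentrations descended in half-log increments from clinical Cmax or 10 microM.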

[1] = second compound 0.1 µM, first compound 0.0316 µM
[2] = second compound 0.1 µM, first compound 0.1 µM
[3] = second compound 0.1 µM, first compound 0.316 µM
[4] = second compound 0.1 µM, first compound 1 µM
[5] = second compound 0.1 µM, first compound 3.16 µM
[6] = second compound 0.1 µM, first compound 10 µM
[7] = second compound 0.316 µM, first compound 0.0316 µM
[8] = second compound 0.316 µM, first compound 0.1 µM
[9] = second compound 0.316 µM, first compound 0.316 µM
[10] = second compound 0.316 µM, first compound 1 µM
[11] = second compound 0.316 µM, first compound 3.16 µM
[12] = second compound 0.316 µM, first compound 10 µM
[13] = second compound 1 µM, first compound 0.0316 µM
[14] = second compound 1 µM, first compound 0.1 µM
[15] = second compound 1 µM, first compound 0.316 µM
[16] = second compound 1 µM, first compound 1 µM
[17] = second compound 1 µM, first compound 3.16 µM
[18] = second compound 1 µM, first compound 10 µM
[19] = second compound 3.16 µM, first compound 0.0316 µM
[20] = second compound 3.16 µM, first compound 0.1 µM
[21] = second compound 3.16 µM, first compound 0.316 µM
[22] = second compound 3.16 µM, first compound 1 µM
[23] = second compound 3.16 µM, first compound 3.16 µM
[24] = second compound 3.16 µM, first compound 10 µM
[25] = second compound 10 µM, first compound 0.0316 µM
[26] = second compound 10 µM, first compound 0.1 µM
[27] = second compound 10 µM, first compound 0.316 µM
[28] = second compound 10 µM, first compound 1 µM
[29] = second compound 10 µM, first compound 3.16 µM
[30] = second compound 10 µM, first compound 10 µM
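Also: spheroids exposed to agents for seven days before readout.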
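For viability, T/C in this document: 100% = DMSO vehicle control wells.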

`CC(C)c1c(-c2ccccc2)nc2c(C#N)c[nH]n2c1=O` + NC1CC1c1ccc(-c2cccc(O)c2)cc1 showed an IC50 (second compound 0.1 µM) of over 10000 nM, an IC50 (second compound 0.316 µM) of over 10000 nM and an IC50 (second compound 1 µM) of over 10000 nM. It also gave an IC50 (second compound 3.16 µM) of over 10000 nM, an IC50 (second compound 10 µM) of over 10000 nM and a viability, T/C [1] of 126%. The viability, T/C [2] was 122%, the viability, T/C [3] was 119% and the viability, T/C [4] was 106%. The viability, T/C [5] was 111%, the viability, T/C [6] was 80.7% and the viability, T/C [7] was 95.6%. The viability, T/C [8] was 113%, the viability, T/C [9] was 118% and the viability, T/C [10] was 106%. For the same compound, the viability, T/C [11] was 98.7%, the viability, T/C [12] was 81.8% and the viability, T/C [13] was 114%. The viability, T/C [14] was 103%, the viability, T/C [15] was 120% and the viability, T/C [16] was 99.2%. For the same compound, the viability, T/C [17] was 95.7%, the viability, T/C [18] was 102% and the viability, T/C [19] was 104%. It also gave a viability, T/C [20] of 106%, a viability, T/C [21] of 111% and a viability, T/C [22] of 100%. It also gave a viability, T/C [23] of 104%, a viability, T/C [24] of 91.2% and a viability, T/C [25] of 86.1%. It also gave a viability, T/C [26] of 82.4%, a viability, T/C [27] of 86.7% and a viability, T/C [28] of 75.3%. The viability, T/C [29] was 62.5% and the viability, T/C [30] was 64.8%.
`CC1COCCN1c1cc(-c2ccnn2C)c2ccnc(-c3ccn[nH]3)c2n1` (stereo not given) + NC1CC1c1ccc(-c2cccc(O)c2)cc1 was tested, and the IC50 (second compound 0.1 µM) was under 3.16 nM, the IC50 (second compound 0.316 µM) was under 3.16 nM and the IC50 (second compound 1 µM) was under 3.16 nM. It also gave an IC50 (second compound 3.16 µM) of under 3.16 nM, an IC50 (second compound 10 µM) of under 3.16 nM and a viability, T/C (second compound 0.1 µM, first compound 0.00316 µM) of 27.6%. The viability, T/C (second compound 0.1 µM, first compound 0.01 µM) was 16.8%, the viability, T/C [1] was 8.87% and the viability, T/C [2] was 6.42%. For the same compound, the viability, T/C [3] was 5.35%, the viability, T/C [4] was 4.21% and the viability, T/C (second compound 0.316 µM, first compound 0.00316 µM) was 25.8%. For the same compound, the viability, T/C (second compound 0.316 µM, first compound 0.01 µM) was 15.6%, the viability, T/C [7] was 8.79% and the viability, T/C [8] was 6.08%. The viability, T/C [9] was 5.05%, the viability, T/C [10] was 4.22% and the viability, T/C (second compound 1 µM, first compound 0.00316 µM) was 23.5%. For the same compound, the viability, T/C (second compound 1 µM, first compound 0.01 µM) was 14.9%, the viability, T/C [13] was 8.57% and the viability, T/C [14] was 6.23%. The viability, T/C [15] was 4.88%, the viability, T/C [16] was 4.83% and the viability, T/C (second compound 3.16 µM, first compound 0.00316 µM) was 22%. It also gave a viability, T/C (second compound 3.16 µM, first compound 0.01 µM) of 16%, a viability, T/C [19] of 8.3% and a viability, T/C [20] of 5.96%. For the same compound, the viability, T/C [21] was 5.3%, the viability, T/C [22] was 4.55% and the viability, T/C (second compound 10 µM, first compound 0.00316 µM) was 16.9%. For the same compound, the viability, T/C (second compound 10 µM, first compound 0.01 µM) was 12.8%, the viability, T/C [25] was 6.32% and the viability, T/C [26] was 5%. For the same compound, the viability, T/C [27] was 4.59% and the viability, T/C [28] was 3.83%.
Compound `CC1COCCN1c1cc(C2(S(C)(=N)=O)CC2)nc(-c2ccnc3[nH]ccc23)n1` (stereo not given) + NC1CC1c1ccc(-c2cccc(O)c2)cc1 has an IC50 (second compound 0.1 µM) of 1050 nM, an IC50 (second compound 0.316 µM) of 1020 nM and an IC50 (second compound 1 µM) of 931 nM. For the same compound, the IC50 (second compound 3.16 µM) was 1070 nM, the IC50 (second compound 10 µM) was 709 nM and the viability, T/C [1] was 114%. The viability, T/C [2] was 113%, the viability, T/C [3] was 111% and the viability, T/C [4] was 51.8%. It also gave a viability, T/C [5] of 11.8%, a viability, T/C [6] of 10.9% and a viability, T/C [7] of 120%. For the same compound, the viability, T/C [8] was 111%, the viability, T/C [9] was 104% and the viability, T/C [10] was 51.2%. It also gave a viability, T/C [11] of 11.5%, a viability, T/C [12] of 9.93% and a viability, T/C [13] of 115%. For the same compound, the viability, T/C [14] was 116%, the viability, T/C [15] was 115% and the viability, T/C [16] was 45.6%. For the same compound, the viability, T/C [17] was 13.9%, the viability, T/C [18] was 10.7% and the viability, T/C [19] was 118%. The viability, T/C [20] was 103%, the viability, T/C [21] was 115% and the viability, T/C [22] was 52.3%. The viability, T/C [23] was 13.3%, the viability, T/C [24] was 9.27% and the viability, T/C [25] was 91.3%. It also gave a viability, T/C [26] of 94.1%, a viability, T/C [27] of 86.6% and a viability, T/C [28] of 34.3%. For the same compound, the viability, T/C [29] was 11.2% and the viability, T/C [30] was 6.83%.
